The values below come from patent US20260209234A1, “SUBSTITUTED DIHYDROPYRROLO[3,4-D]PYRIMIDINE COMPOUNDS AND THEIR USE IN TREATING MEDICAL CONDITIONS” (Karuna Therapeutics, Inc., priority 2022, published 2026).

In general, EC50 refers to the concentration needed to bring the measured effect to its halfway point. Read a high EC50 as lower potency in that assay.

In one assay the target is T1, rM4 receptors (Rattus norvegicus, UniProt P08485).
T1 construct: expressed in transfected cells; host or cells: CHO cells
T1 sequence (P08485 1-478): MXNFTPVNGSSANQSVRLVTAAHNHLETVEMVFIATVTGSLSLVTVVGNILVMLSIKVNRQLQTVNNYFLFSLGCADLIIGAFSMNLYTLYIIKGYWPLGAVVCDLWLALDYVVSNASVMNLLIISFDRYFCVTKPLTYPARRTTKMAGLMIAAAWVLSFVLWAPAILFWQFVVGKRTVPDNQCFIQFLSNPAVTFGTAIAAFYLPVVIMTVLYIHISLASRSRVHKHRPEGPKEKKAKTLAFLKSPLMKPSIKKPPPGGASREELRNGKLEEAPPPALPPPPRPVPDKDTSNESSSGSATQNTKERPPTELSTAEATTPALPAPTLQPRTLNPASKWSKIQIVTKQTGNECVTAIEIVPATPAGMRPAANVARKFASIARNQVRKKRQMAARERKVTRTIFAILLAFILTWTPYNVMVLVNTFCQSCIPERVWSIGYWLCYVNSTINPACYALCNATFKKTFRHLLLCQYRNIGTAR
Description: Rat M4 PAM pERK assay. Conditions: CHO cells expressing rM4; EC20 of acetylcholine (10 nM final); TR-FRET. Type of assay: cell-based. Background: TR-FRET usually uses a lanthanide donor and a delayed reading to cut background.

Assay [1] relates to Sprague Dawley rats pre-treated with amphetamine. Description: Amphetamine-evoked hyperlocomotion in rats. In kind it is in vivo, rat. To be noted: male Sprague Dawley rats; 0.5 mg/kg amphetamine s.c.; open field, distance traveled. On the procedure: Animals: Adult male, Sprague Dawley rats (Envigo, Indianapolis, IN, USA) were housed in a colony maintained at 23° C. with 12 hour light/dark cycles (lights on at 0600 hour). All animals weighed 290-330 g at the beginning of the study and were equally divided into 5 groups (n=8 per group) and received one of the treatment conditions listed below. Animal protocols were approved by an Animal Care and Use Committee.
Behavioral Procedures: Studies were conducted in MedAssociates open field chambers (27.3 cm×27.3 cm×20.3 cm, MedAssociates, St. Albans, VT) in which movement was automatically tracked and recorded by 16 beam arrays. Administration pretreatment of the test article was determined to coincide with Tmax at the time of the amphetamine-evoked session with optimal route of administration. All groups were subcutaneously treated with 0.5 mg/kg amphetamine (AMP). […] Locomotor data (distance traveled) was recorded as 5-minute bins throughout the 90-minute session. […]
Statistical Analysis: Spontaneous locomotion (prior to AMP administration) was calculated as the total distance traveled during the first 30 minutes of the experimental session. AMP-evoked responses were calculated as the total distance traveled during the last 60 minutes of the experimental session which commenced immediately after AMP administration. Locomotor data were analyzed by a one-way ANOVA. […]

For the next assay, the target named is T2, hM4 receptors (Homo sapiens, UniProt P08173).
T2 construct: expressed in transfected cells; host or cells: CHO cells
T2 sequence (P08173 1-479): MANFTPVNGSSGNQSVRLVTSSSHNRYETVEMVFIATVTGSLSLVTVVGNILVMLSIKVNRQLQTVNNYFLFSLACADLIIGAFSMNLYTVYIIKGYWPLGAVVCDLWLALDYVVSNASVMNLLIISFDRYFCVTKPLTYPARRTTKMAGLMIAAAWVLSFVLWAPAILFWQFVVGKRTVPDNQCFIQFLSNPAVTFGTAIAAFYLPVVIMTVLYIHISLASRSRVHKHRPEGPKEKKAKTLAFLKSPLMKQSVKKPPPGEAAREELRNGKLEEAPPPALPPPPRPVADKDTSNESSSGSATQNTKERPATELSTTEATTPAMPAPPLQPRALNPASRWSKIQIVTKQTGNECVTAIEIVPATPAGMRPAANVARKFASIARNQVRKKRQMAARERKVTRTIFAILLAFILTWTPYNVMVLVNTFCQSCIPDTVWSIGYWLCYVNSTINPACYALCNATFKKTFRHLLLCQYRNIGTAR
The assay is described as follows: Human M4 PAM pERK assay. In kind it is cell-based. Conditions: CHO cells expressing hM4; EC20 of acetylcholine (10 nM final); TR-FRET.

Regarding `COc1nc(C)nc2c1C(C)N(C(=O)CC1CN(c3ccnc(C(F)(F)F)c3)C1)C2` (single isomer, unassigned) [Compound I-52, 1-(4-Methoxy-2,5-dimethyl-5,7-dihydro-6H-pyrrolo[3,4-d]pyrimidin-6-yl)-2-(1-(2-(trifluoromethyl)pyridin-4-yl)azetidin-3-yl)ethan-1-one], the half-maximal effective concentration (EC50) on rM4 receptors and on hM4 receptors was 100 to 500 nM each time. In addition, the “Dose Amount of Compound at which rats displayed a reduction in amphetamine-evoked hyperlocomotion activity” value in assay [1] worked out at 32 mg/kg.

In the case of `COc1nc(C#N)nc2c1C(C)N(C(=O)CC1CN(c3ccnc(C(F)(F)F)c3)C1)C2` (single isomer, unassigned) [Compound I-6, 4-Methoxy-5-methyl-6-(2-(1-(2-(trifluoromethyl)pyridin-4-yl)azetidin-3-yl)acetyl)-6,7-dihydro-5H-pyrrolo[3,4-d]pyrimidine-2-carbonitrile], the EC50 on rM4 receptors was 100 to 500 nM; on hM4 receptors, no more than 100 nM. For the same compound, in assay [1], the “Dose Amount of Compound at which rats displayed a reduction in amphetamine-evoked hyperlocomotion activity” value was greater than 32 mg/kg.
